Reference: patent US20060153781A1, “Repair of dna mutagenic damage” (Novogen Research Pty Ltd, a Corporation, priority 2002, published 2006)
“And” between values parts separate entries of the source, which are not always exact repeats. Identical values can stand only once.

What was measured:
Type in all cases: in vivo
[1] = tested on: metallothionein (MT) in the epidermis; assay: MT production in skin biopsies of human volunteers after UV irradiation (immunohistochemistry); settings: 24 hrs after 2.5 MED SSUV
Protocol: (§1) Equol was applied to the skin of five human volunteers immediately after, and at 4 hours and 6 hours post-UV irradiation. A control lotion was also used containing no equol. Twenty-four hours after UV irradiation, skin biopsies were taken and MT production was measured using immunohistochemistry.
Approximately half of the cells in the basal epidermis constitutively expressed MT at baseline, whereas almost none of the cells in the more superficial layers of the epidermis expressed MT. At 24 hrs after exposure to 2.5 MED SSUV, there were apparent differences in the expression of MT in the basal layers of the epidermis between sections treated with equol and those treated with DMSO in base lotion (vehicle). In all 5 participants, the expression of MT was higher in the skin treated with equol, with the magnitude of the difference ranging from +4% to +21%.

CPDs in the epidermis = assay: Cyclobutane pyrimidine dimer formation in skin biopsies of human volunteers after UV irradiation (immunohistochemistry)
Protocol: as §1
The skin biopsies from the five human volunteers from Example 2 were tested for cyclobutane pyrimidine dimer formation using immunohistochemistry.

p53 in the epidermis = assay: P53 staining in skin biopsies of human volunteers following UV irradiation
Protocol: as §1
The skin biopsies from the five human volunteers from Example 2 were tested for P53 staining following UV irradiation.

[2] = tested on: cyclobutane pyrimidine dimers (CPD) in skin of hairless mice; assay: Induction of epidermal CPD-positive cells in skin of hairless mice exposed to SSUV (immunohistochemistry); settings: for reduction in the number of CPD compared with control group (vehicle alone): equol lotion 20 μM for 7 days prior and 5 days after SSUV, p<0.05; for CPD + ve cells/linear cm: hairless mice; for reduction of dimers: equol applied immediately after SSUV exposure and continuing for 5 d
Source text: The effect of equol on the induction of CPD was examined in the skin of hairless mice (a standard model for human dermatological investigations) exposed to solar simulated ultraviolet radiation (SSUV). At various time points after SSUV, dorsal skin was excised, fixed for 6 hr in a standard fixing medium (HistoChoice™, Amersco Inc, Solon, Ohio, USA), processed and paraffin-embedded. Pyrimidine dimers were detected immunohistochemically using citric acid antigen retrieval and the H3 anti-pyrimidine dimer antibody. The number of dimer-positive cells was counted manually in 30 fields per mouse, at 40× magnification.

[3] = equol 200 μM topical, one row per subject (five volunteers)
[4] = 24 hrs after 2.5 MED SSUV, lotion containing equol 200 μM, one row per subject (five volunteers)
[5] = 24 hrs after 2.5 MED SSUV, equol 200 μM topical, one row per subject (five volunteers)

Oc1ccc(C2COc3cc(O)ccc3C2)cc1 (stereo not shown) [equol]
expression of MT in skin treated with equol vs vehicle (in words) ([1]; all 5 participants): higher | MT staining, Basal epidermis, % positive cells [1, 3]: 76% and 59% and 69% and 77% and 60% | MT staining, Basal epidermis, neg (cell count) [1, 3]: 118 and 188 and 239 and 154 and 157 | MT staining, Basal epidermis, pos (cell count) [1, 3]: 380 and 271 and 531 and 522 and 233 | MT staining, Total epidermis, % positive cells [1, 3]: 56% and 50% and 63% and 62% and 51% | MT staining, Total epidermis, neg (cell count) [1, 3]: 303 and 270 and 315 and 323 and 225 | MT staining, Total epidermis, pos (cell count) [1, 3]: 382 and 271 and 539 and 527 and 234 | MT staining, Upper epidermis, % positive cells [1, 3]: 1% (2×) and 0% and 10% and 3% | MT staining, Upper epidermis, neg (cell count) [1, 3]: 185 and 82 and 76 and 169 and 68 | MT staining, Upper epidermis, pos (cell count) [1, 3]: 2 and 0 and 8 and 5 and 1 | CPD staining, Basal epidermis, % positive cells (CPDs in the epidermis; [4]): 15% and 0% and 10% and 25% (2×) | CPD staining, Basal epidermis, neg (cell count) (CPDs in the epidermis; [4]): 94 and 279 and 181 and 134 and 125 | CPD staining, Basal epidermis, pos (cell count) (CPDs in the epidermis; [4]): 16 and 1 and 21 and 44 and 41 | CPD staining, Total epidermis, % positive cells (CPDs in the epidermis; [4]): 19% and 5% and 25% and 31% (2×) | CPD staining, Total epidermis, neg (cell count) (CPDs in the epidermis; [4]): 164 and 349 and 279 and 213 and 188 | CPD staining, Total epidermis, pos (cell count) (CPDs in the epidermis; [4]): 39 and 18 and 92 and 94 and 85 | CPD staining, Upper epidermis, % positive cells (CPDs in the epidermis; [4]): 25% and 20% and 42% and 39% and 41% | CPD staining, Upper epidermis, neg (cell count) (CPDs in the epidermis; [4]): 70 (2×) and 98 and 79 and 63 | CPD staining, Upper epidermis, pos (cell count) (CPDs in the epidermis; [4]): 23 and 17 and 71 and 50 and 44 | CPD-positive cells, equol lotion vs DMSO in base lotion (vehicle) (in words) (CPDs in the epidermis; 24 hrs after UV exposure, 4 out of 5 participants): proportionally less CPD-positive cells | CPD damage, data from all participants pooled (in words) (CPDs in the epidermis; at 24 hours, pooled participants): moderately lower levels of CPD damage | p53 staining, Basal epidermis, % positive cells (p53 in the epidermis; [5]): 22% and 8% and 11% and 6% and 26% | p53 staining, Basal epidermis, neg (cell count) (p53 in the epidermis; [5]): 161 and 172 and 250 and 140 and 118 | p53 staining, Basal epidermis, pos (cell count) (p53 in the epidermis; [5]): 46 and 15 and 31 and 9 and 41 | p53 staining, Total epidermis, % positive cells (p53 in the epidermis; [5]): 26% and 21% and 9% and 4% and 25% | p53 staining, Total epidermis, neg (cell count) (p53 in the epidermis; [5]): 270 and 337 and 500 and 287 and 227 | p53 staining, Total epidermis, pos (cell count) (p53 in the epidermis; [5]): 94 and 87 and 50 and 13 and 76 | p53 staining, Upper epidermis, % positive cells (p53 in the epidermis; [5]): 31% and 30% and 7% and 3% and 24% | p53 staining, Upper epidermis, neg (cell count) (p53 in the epidermis; [5]): 109 (2×) and 165 and 250 and 147 | p53 staining, Upper epidermis, pos (cell count) (p53 in the epidermis; [5]): 48 and 72 and 19 and 4 and 35 | percentage of p53 expression in upper and/or basal epidermis (in words) (p53 in the epidermis; 24 hrs after UV exposure, equol treated vs vehicle): reduced in four out of five equol treated subjects | reduction of percentage of p53 staining compared with vehicle controls (p53 in the epidermis; subjects N13PDO and N14GBO, 24 hrs after UV exposure, 'generally'): more than 50% | reduction in the number of CPD compared with control group (vehicle alone) ([2]; 1 hour after SSUV): 54% | CPD + ve cells/linear cm ([2]; 1 hr post-SSUV, equol lotion 20 μM daily for 7 days prior to and following 1×3 MED SSUV): 238 ± 22 cells/linear cm | reduction of dimers ([2]; 1 day post-irradiation): 23% | reduction in the number of CPD compared with control group (vehicle alone) ([2]; 24 hours after SSUV): 50% | CPD + ve cells/linear cm ([2]; 24 hr post-SSUV, equol lotion 20 μM daily for 7 days prior to and following 1×3 MED SSUV): 167 ± 17 cells/linear cm | reduction in the number of CPD compared with control group (vehicle alone) ([2]; 48 hours after SSUV): 26% | reduction of dimers ([2]; 2 d post-irradiation, data not shown): 42% | effect on dimer induction and repair (in words) ([2]; equol lotion 20 μM daily for 7 days prior to and following 1×3 MED SSUV): reduce the initial induction of dimers, and to enhance the rate of their repair
